Test results as given in patent US7091207B2, “Method of treating myocardial infarction with PDE-5 inhibitors” (Virginia Commonwealth University, priority 2002, dated 2006).
Marks after values point to notes of the source that are not given here.

Tests used:
[1] = system: neonatal mouse cardiac myocytes; type: cell-based; conditions: for effect of channel blocker on the protective effect of sildenafil: 5-hydroxydecanoate 100 μM, HMR1098 30 μM
Description: Neonatal mouse myocytes in culture are incubated with 0.5–5 μM of DOX (in the presence or absence of 1 μM sildenafil) for 18 hours. The cells are then incubated with drug free growth medium for an additional 24 hours. Cytotoxicity of DOX is quantitatively assessed by measuring the percentage of cells killed and the amount of creatine kinase (CK) released into the media. In addition, a trypan blue exclusion assay and propidium iodide nuclear stain are used to quantitate cell death. Since DOX induces cardiomyopathy through the release of reactive oxygen species, lipid peroxidation in the cells is also measured as an index of oxidative damage.
Neonatal mouse cardiac myocyte cultures are used for membrane potential studies. Cells in culture are treated with 0.5–5 μM of DOX (in the presence or absence of 1 μM sildenafil) for 18 hours. The cells are then incubated with drug free growth medium for an additional 24 hours. Additional groups are included where the cells are treated with a mitoKATP channel blocker (5-hydroxydecanoate, 100 μM), surface channel blocker (HMR1098, 30 μM) or cyclosporine, a mitochondrial membrane potential (Ψm) blocker (5 μM). For assessment of apoptosis, the TUNEL assay is used, which is an accurate method for distinguishing apoptosis from necrosis by specifically detecting DNA cleavage and chromatin condensation characteristic of apoptosis. Additionally, positive TUNEL staining directly correlates with the more typical biochemical and morphological aspects of apoptosis. Since an understanding of cell morphology is critical for data interpretation, apoptotic morphology is simultaneously assessed according to accepted scientific criteria previously described (Nor-Avi, 1999). The in situ staining of DNA strand breaks detected by the TUNEL assay along with subsequent morphological observation via epifluorescent, confocal, and electron microscopy, provides significant and reliable data regarding the identification of apoptotic cells, even in tissue samples where apoptosis represents a small segment of the population (Manning 1994). In addition, several other key indicators of apoptosis including annexin-V, cytosolic cytochrome c, caspase 3, caspase 8, as well as poly (ADP-ribose) polymerase cleavage in these groups, are measured. Mitochondrial membrane potential (Ψm) using a fluorescent indicator probe, JC-1 (Molecular Probes, Eugene, Oreg.) is measured.

[2] = Systemic hemodynamics (blood pressure, heart rate, rate pressure product) in rabbits; type: in vivo, rabbit; conditions: 5-HD 5 mg/kg IV 10 min prior to ischemia, control rabbits
[3] = system: rabbit heart, ischemia/reperfusion injury; experiment: In situ rabbit model of myocardial infarction (30 min coronary occlusion, 180 min reperfusion), infarct size by TTC staining; type: in vivo; conditions: control rabbits, 5-HD 5 mg/kg IV 10 min prior to ischemia
[4] = system: iNOS vs nNOS; conditions: cited from earlier work
[5] = system: mouse heart, global I-R injury; experiment: Isolated perfused mouse heart (Langendorff), 20 min global ischemia and 30 min reperfusion after in vivo treatment; conditions: saline+1400W; 1400W 10 mg/kg IP 30 minutes before I-R
Description: Adult male outbred ICR mice were supplied by Harlan Inc (Indianapolis, Ind.). Viagra pills (Pfizer Inc) were ground into powder and dissolved in saline. The drug solution was filtered (0.45-μm pore size) before intraperitoneal injection. 1400W, an iNOS inhibitor, was obtained from Alexis. We used an isolated perfused mouse heart model subjected to 20 minutes of global ischemia and 30 minutes of reperfusion (Langendorff mode). Myocardial I-R injury was assessed by measuring infarct size, contractile function, and coronary flow as described previously (Xi, 1999). Twenty-eight mice were randomized into the following 4 groups: (n=6 to 9 per group): (1) saline (0.15 mL IP), (2) sildenafil (0.7 mg/kg IP, equivalent to 50 mg Viagra pill used for patients with erectile dysfunction, given 24 hours before I-R), (3) sildenafil+1400W (10 mg/kg IP, 14 given 30 minutes before I-R), and (4) saline+1400W. Measurement of NOS Isoforms Mice were treated with sildenafil (0.7 mg/kg IP), and their hearts were removed at 15, 30, and 45 minutes and 1, 2, 3, 4, and 24 hours after injection (n=3 per group). Three nontreated hearts were used as controls. Tissue samples were ground under liquid nitrogen and homogenized with TRI Reagent (Molecular Research Center) for extracting total RNA, which was reverse-transcribed into cDNA at 50° C. for 30 minutes using a OneStep reverse transcription (RT)-polymerase chain reaction (PCR) kit from Qiagen. The oligonucleotide primers were synthesized on the basis of published sequences for murine iNOS, eNOS, and GAPDH15 (Integrated DNA Technology). The RT-PCR products were electrophoresed on 1.5% Trisacetate-EDTA agarose gel. The target bands were identified on the basis of their specific size using DNA standards. iNOS and eNOS proteins were measured by Western blots as described previously. 13 In brief, triplicate heart samples were collected 24 hours after saline or sildenafil injection and homogenized in ice-cold RIPA buffer (Upstate Biotechnology). The homogenate was centrifuged at 10,000 g for 10 minutes at 4° C., and supernatant was recovered as the total cellular protein. Total protein (60 μg) from each sample was separated by SDS-PAGE on 10% acrylamide gels, transferred to a polyvinylidine difluoride membrane, and then blocked with 5% nonfat dry milk in Tris-buffered saline. The membrane was subsequently incubated with a rabbit polyclonal antibody (dilution 1:500, Santa Cruz) reacting specifically to iNOS, eNOS, or actin. The secondary antibody was a horseradish peroxidase-conjugated anti-rabbit IgG (1:1000 dilution, Amersham). The membranes were developed using enhanced chemiluminescence and exposed to x-ray film. The mRNA and protein expression were quantified by scanning each of the RT-PCR or Western blot band using a densitometer (Bioquant 98). […]

[6] = system: DOX-related cardiac complications; conditions: clinical use; cited from earlier work

**Q.** With `CCCCCC(O)CCCC(=O)O` (stereo not shown) [5-HD, 5-hydroxydecanoate] as the compound, how does the “effect of channel blocker on the protective effect of sildenafil” value [1] read?
**A.** The value was “abolished”.

**Q.** What about the HR ([2]; 30-min Ischemia) of the same compound?
**A.** Its HR is 185 ± 8 beats/min.

**Q.** And the MAP ([2]; 30-min Ischemia)?
**A.** The MAP was 95 ± 5^a mmHg.

**Q.** And the “RPP (systolic arterial pressure × HR)” value ([2]; 30-min Ischemia)?
**A.** The value was 19215 ± 999.

**Q.** And the HR ([2]; Baseline)?
**A.** The HR was 171 ± 13^d,e beats/min.

**Q.** And the MAP ([2]; Baseline)?
**A.** Its MAP is 120 ± 4 mmHg.

**Q.** And the “RPP (systolic arterial pressure × HR)” value ([2]; Baseline)?
**A.** The value was 22477 ± 1849.

**Q.** What about the HR ([2]; Preischemia) of the same compound?
**A.** Its HR is 178 ± 13 beats/min.

**Q.** And the MAP ([2]; Preischemia)?
**A.** The MAP was 110 ± 6 mmHg.

**Q.** What about the “RPP (systolic arterial pressure × HR)” value ([2]; Preischemia) of the same compound?
**A.** The value was 20977 ± 1373.

**Q.** And the HR ([2]; Reperfusion (60 min))?
**A.** Its HR is 162 ± 8 beats/min.

**Q.** What about the MAP ([2]; Reperfusion (60 min)) of the same compound?
**A.** Its MAP is 97 ± 5^a mmHg.

**Q.** And the “RPP (systolic arterial pressure × HR)” value ([2]; Reperfusion (60 min))?
**A.** Its value is 17050 ± 1132.

**Q.** And the HR ([2]; Reperfusion (120 min))?
**A.** The HR was 160 ± 8 beats/min.

**Q.** And the MAP ([2]; Reperfusion (120 min))?
**A.** The MAP was 91 ± 5^a mmHg.

**Q.** And the “RPP (systolic arterial pressure × HR)” value ([2]; Reperfusion (120 min))?
**A.** The value was 15770 ± 984^a.

**Q.** And the HR ([2]; Reperfusion (180 min))?
**A.** Its HR is 160 ± 7 beats/min.

**Q.** What about the MAP ([2]; Reperfusion (180 min)) of the same compound?
**A.** Its MAP is 91 ± 7^a mmHg.

**Q.** And the “RPP (systolic arterial pressure × HR)” value ([2]; Reperfusion (180 min))?
**A.** The value was 16300 ± 1503^a.

**Q.** What about the infarct size [3] of the same compound?
**A.** Its infarct size is 33.5±1.9 % of risk area.

**Q.** Which “effect of channel blocker on the protective effect of sildenafil” value [1] does the source give for `CNC(=S)NS(=O)(=O)c1cc(CCNC(=O)c2cc(Cl)ccc2OC)ccc1OC` [HMR1098] here?
**A.** The value was “not by HMR1098”.

**Q.** Which “selectivity for iNOS vs nNOS” value [4] does the source give for `CSC(N)=NCCC[C@H](N)C(=O)O` [SMT, S-methyl-L-thiocitrulline] here?
**A.** Its value is “approximately 40 fold”.

**Q.** For `CC(=N)NCCCC[C@H](N)C(=O)O.Cl` [L-NIL, L-N-6-(1-iminoethyl)lysine hydrochloride], which “selectivity for iNOS vs nNOS” value [4] is on record?
**A.** The value was “approximately 40 fold”.

**Q.** For `COc1cccc2c1C(=O)c1c(O)c3c(c(O)c1C2=O)C[C@@](O)(C(=O)CO)C[C@@H]3O[C@H]1C[C@H](N)[C@H](O)[C@H](C)O1` [DOX, Doxorubicin], which “apoptosis indicators (TUNEL, cytochrome c translocation, caspase-3, PARP cleavage, Ψm dissipation)” value ([1]; 0.5–5 μM DOX for 18 hours) is on record?
**A.** The value was “TUNEL positivity”.

**Q.** What about the “necrotic cell death (CK release, uptake of trypan blue)” value ([1]; 0.5–5 μM DOX for 18 hours) of the same compound?
**A.** Its value is “increased necrotic cell death”.

**Q.** What does the source list for `CC(=N)NCc1cccc(CN)c1` [1400W]?
**A.** selectivity for iNOS vs nNOS [4]: approximately 40 fold; infarct size [5]: 24.5±1.0%

**Q.** For `C[C@@H](CN1CC(=O)NC(=O)C1)N1CC(=O)NC(=O)C1` [dexrazoxane], which “reduction of DOX-related cardiac complications” value [6] is on record?
**A.** The value was 50%.
